Usually IC50 stands for the point on the concentration scale where inhibition reaches its midpoint.

This passage reports IC50 results from US9675606B2, “2-amino-3-(imidazol-2-yl)-pyridin-4-one derivatives and their use as VEGF receptor kinase inhibitors” (SANOFI, priority 2011, dated 2017).

In this test the target is T1, VEGFR-3 (Homo sapiens, UniProt P35916).
T1 construct: expressed in transfected cells; host or cells: HEK293T cells, transient transfection with Fugene-6
T1 sequence (P35916 25-1363, species assumed): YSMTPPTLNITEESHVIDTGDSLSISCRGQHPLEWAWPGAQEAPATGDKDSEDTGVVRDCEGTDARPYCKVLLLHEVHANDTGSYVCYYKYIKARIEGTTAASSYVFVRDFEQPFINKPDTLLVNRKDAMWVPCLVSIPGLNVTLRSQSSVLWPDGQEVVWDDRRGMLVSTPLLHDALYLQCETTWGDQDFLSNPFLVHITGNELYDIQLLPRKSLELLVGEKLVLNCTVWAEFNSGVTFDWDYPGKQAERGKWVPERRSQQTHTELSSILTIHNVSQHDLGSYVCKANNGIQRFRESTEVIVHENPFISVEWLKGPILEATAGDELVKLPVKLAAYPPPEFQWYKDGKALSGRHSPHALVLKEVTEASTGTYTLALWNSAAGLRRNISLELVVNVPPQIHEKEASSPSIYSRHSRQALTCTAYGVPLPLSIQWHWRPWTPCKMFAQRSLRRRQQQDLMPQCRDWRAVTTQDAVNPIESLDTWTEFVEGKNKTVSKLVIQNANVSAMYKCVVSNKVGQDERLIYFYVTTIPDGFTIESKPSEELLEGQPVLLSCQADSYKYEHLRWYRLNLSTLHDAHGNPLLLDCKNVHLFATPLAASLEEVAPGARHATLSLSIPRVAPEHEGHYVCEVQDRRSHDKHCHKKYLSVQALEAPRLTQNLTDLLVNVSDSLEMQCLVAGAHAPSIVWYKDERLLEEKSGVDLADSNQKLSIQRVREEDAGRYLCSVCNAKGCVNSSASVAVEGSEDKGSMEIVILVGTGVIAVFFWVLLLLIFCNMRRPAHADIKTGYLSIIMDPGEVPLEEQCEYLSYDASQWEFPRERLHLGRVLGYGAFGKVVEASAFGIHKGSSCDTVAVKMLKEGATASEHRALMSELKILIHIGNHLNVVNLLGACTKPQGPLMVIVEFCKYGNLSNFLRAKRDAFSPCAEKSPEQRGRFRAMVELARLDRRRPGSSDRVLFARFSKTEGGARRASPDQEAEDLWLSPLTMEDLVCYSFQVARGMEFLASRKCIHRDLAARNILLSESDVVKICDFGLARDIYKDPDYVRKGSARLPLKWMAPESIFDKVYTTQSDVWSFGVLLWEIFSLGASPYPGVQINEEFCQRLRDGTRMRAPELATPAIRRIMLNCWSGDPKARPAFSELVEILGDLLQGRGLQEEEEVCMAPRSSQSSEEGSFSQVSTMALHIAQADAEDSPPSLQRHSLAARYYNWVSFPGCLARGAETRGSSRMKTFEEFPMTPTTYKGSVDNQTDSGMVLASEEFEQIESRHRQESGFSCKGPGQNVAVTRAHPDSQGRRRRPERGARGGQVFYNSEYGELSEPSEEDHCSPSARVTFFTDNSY
Description: Effect of compounds on VEGFR-3 auto-phosphorylation in HEK cells (ELISA). Conditions: autophosphorylation of VEGFR-3-Flag overexpressed in HEK293T cells, 1 h incubation with compound. The class given is cell-based. As to the method: Effect of Compounds on VEGFR-3 Auto-Phosphorylation in HEK Cells
The effects of compounds in blocking VEGFR-3 autophosphorylation were quatified by ELISA after Overexpression of VEGFR-3 in HEK cells. HEK293T cells were maintained in MEM supplemented with 10% foetal calf serum (FCS) and glutamine. The day before transfection, […] were seeded on 48 wells plates and transfection was done using Fugene-6 (Roche, Basel). Fugene-6 (18 μL) was preincubated for 5 min with 282 μl of optimem. Then 3 μg DNA corresponding VFGR-3-Flag was added and left at room temperature during 10 min before distributing 200 μl on HEK cells. After 24 h, the medium was removed and replaced by a new one without serum and incubated for 1 h with different concentrations (ranging from 3 to 1000 nM) of each compound. After additional 30 min incubation with Orthovanadate (0.4 mM), cells were washed with cold PBS supplemented by orthovanadate and then lysed with 300 μl of RIPA buffer. Lysates were then centrifuged during 10 min at 10000 g. Supernatants (75 μl) were distributed in duplicate on 96 well plate precoated with the anti-Flag and left during 1 hour at room temperature. After 3 washes with TBS buffer containing 0.5% tween 20, the anti-phospho-tyrosine conjugated to the HRP was added and incubated for 1 hour at room temperature. Wells were then washed 3 times with TBS buffer containing tween 20 (0.5%) and MgCl2 (2 mM). The reaction was stopped with 50 μl of H2SO4 (2 N) and the signal was read at Envision at 485 and 530.
The concentration-response curves were analyzed with internal software Biost@t-SPEED v2.0 using the 4-parameter logistic model according to Ratkovsky and Reedy (Ratkovsky D A., Reedy T J. Choosing near-linear parameters in the four parameters logistic model radioligands and related assays. Biometrics 1986 September 42(3):575-82.)
In general terms: An ELISA detects its analyte on a solid surface through an enzyme-linked reagent.
Regarding `CCC(O)C#Cc1ccc2c(=O)c(-c3ncc[nH]3)c(N)n(CC3CC3)c2n1` (racemic) [Compound 6, 2-Amino-1-(cyclopropylmethyl)-7-(3-hydroxypent-1-yn-1-yl)-3-(H-imidazol-2-yl)-1,8-naphthyridin-4(1H)-one], the IC50 stood at 85 nM. Turning to `CCn1c(N)c(-c2ncc[nH]2)c(=O)c2ccc(C#CC(C)(O)c3ccccc3F)nc21` (racemic) [Compound 9, 2-Amino-1-ethyl-7-[3-(2-fluorophenyl)-3-hydroxybut-1-yn-1-yl]-3-(1H-imidazol-2-yl)-1,8-naphthyridin-4(1H)-one], the half-inhibitory concentration (IC50) came to 16 nM. Regarding `CCC(O)C#Cc1ccc2c(=O)c(-c3ncc[nH]3)c(N)n(C3CCCC3)c2n1` (racemic) [Compound 10, 2-Amino-1-cyclopentyl-7-(3-hydroxypent-1-yn-1-yl)-3-(1H-imidazol-2-yl)-1,8-naphthyridin-4(1H)-one], the half-inhibitory concentration (IC50) stood at 37 nM. `CCC(O)C#Cc1ccc2c(=O)c(-c3ncc[nH]3)c(N)n(CCCOC)c2n1` (racemic) [Compound 11, 2-Amino-7-(3-hydroxypent-1-yn-1-yl)-3-(1H-imidazol-2-yl)-1-(3-methoxypropyl)-1,8-naphthyridin-4(1H)-one]: the IC50 is 334 nM. On to `CCC(O)C#Cc1ccc2c(=O)c(-c3ncc[nH]3)c(N)n(CCOC)c2n1` (racemic) [Compound 12, 2-Amino-7-(3-hydroxypent-1-yn-1-yl)-3-(1H-imidazol-2-yl)-1-(2-methoxyethyl)-1,8-naphthyridin-4(1H)-one], for which the IC50 is 166 nM. Regarding `CCn1c(N)c(-c2ncc[nH]2)c(=O)c2ccc(C#CC(C)(O)c3cccc(F)c3)nc21` (racemic) [Compound 18, 2-Amino-1-ethyl-7-[3-(3-fluorophenyl)-3-hydroxybut-1-yn-1-yl]-3-(1H-imidazol-2-yl)-1,8-naphthyridin-4(1H)-one], the concentration for half-maximal inhibition (IC50) came to 36 nM. Next, `CCn1c(N)c(-c2ncc[nH]2)c(=O)c2ccc(C#CC(O)(c3ccccc3)C(F)(F)F)nc21` (racemic) [Compound 19, 2-Amino-1-ethyl-3-(1H-imidazol-2-yl)-7-(4,4,4-trifluoro-3-hydroxy-3-phenylbut-1-yn-1-yl)-1,8-naphthyridin-4(1H)-one]: 14 nM. For the molecule `CCn1c(N)c(-c2ncc[nH]2)c(=O)c2ccc(C#CC(C)(O)c3cccs3)nc21` (racemic) [Compound 21, 2-Amino-1-ethyl-7-[3-hydroxy-3-(thiophen-2-yl)but-1-yn-1-yl]-3-(1H-imidazol-2-yl)-1,8-naphthyridin-4(1H)-one], the IC50 was 24 nM. Next, `CCC(O)C#Cc1ccc2c(=O)c(-c3ncc[nH]3)c(N)n(CC)c2n1` (racemic) [Compound 23, 2-Amino-1-ethyl-7-(3-hydroxypent-1-yn-1-yl)-3-(1H-imidazol-2-yl)-1,8-naphthyridin-4(1H)-one]: 19 nM. For `CCCC(O)C#Cc1ccc2c(=O)c(-c3ncc[nH]3)c(N)n(CC)c2n1` (racemic) [Compound 24, 2-Amino-1-ethyl-7-(3-hydroxyhex-1-yn-1-yl)-3-(1H-imidazol-2-yl)-1,8-naphthyridin-4(1H)-one], the IC50 was found to be 85 nM. Regarding `CCn1c(N)c(-c2ncc[nH]2)c(=O)c2ccc(C#CC(O)C(C)C)nc21` (racemic) [Compound 25, 2-Amino-1-ethyl-7-(3-hydroxy-4-methylpent-1-yn-1-yl)-3-(1H-imidazol-2-yl)-1,8-naphthyridin-4(1H)-one], the IC50 is 303 nM. On to `CCn1c(N)c(-c2ncc[nH]2)c(=O)c2ccc(C#CC(O)c3ccccc3)nc21` (racemic) [Compound 26, 2-Amino-1-ethyl-7-(3-hydroxy-3-phenylprop-1-yn-1-yl)-3-(1H-imidazol-2-yl)-1,8-naphthyridin-4(1H)-one], for which the IC50 was 120 nM.

With `CCCn1c(N)c(-c2ncc[nH]2)c(=O)c2ccc(C#C[C@@](C)(O)COC)nc21` [Compound 2, 2-Amino-1-propyl-7-((3R)-3-hydroxy-4-methoxy-3-methyl-but-1-ynyl)-3-(1H-imidazol-2-yl)-1H-[1,8]naphthyridin-4-one], the IC50 is 18 nM. Consider `CCn1c(N)c(-c2ncc[nH]2)c(=O)c2ccc(C#C[C@@](C)(O)COC)cc21` [Compound 7, 2-Amino-1-ethyl-7-[(3R)-3-hydroxy-4-methoxy-3-methylbut-1-yn-1-yl]-3-(1H-imidazol-2-yl)quinolin-4(1H)-one], for which the concentration for half-maximal inhibition (IC50) stood at 19 nM.

As for `CCn1c(N)c(-c2ncc[nH]2)c(=O)c2ccc(-c3ccc(O)c(Cl)c3)nc21` [Compound 8, 2-Amino-7-(3-chloro-4-hydroxyphenyl)-1-ethyl-3-(1H-imidazol-2-yl)-1,8-naphthyridin-4(1H)-one], the IC50 came to 73 nM. With `CCn1c(N)c(-c2ncc[nH]2)c(=O)c2ccc(C#CC3(O)CCCC3)nc21` [Compound 14, 2-Amino-1-ethyl-7-[(1-hydroxycyclopentyl)ethynyl]-3-(1H-imidazol-2-yl)-1,8-naphthyridin-4(1H)-one], the half-maximal inhibitory concentration (IC50) was determined as 200 nM. Turning to `CCn1c(N)c(-c2ncc[nH]2)c(=O)c2ccc(C#CC(C)(C)O)nc21` [Compound 15, 2-Amino-1-ethyl-7-(3-hydroxy-3-methylbut-1-yn-1-yl)-3-(1H-imidazol-2-yl)-1,8-naphthyridin-4(1H)-one], the IC50 turned out to be 27 nM. In the case of `CCn1c(N)c(-c2ncc[nH]2)c(=O)c2ccc(C#C[C@@](C)(O)CO)nc21` [Compound 27, 2-Amino-7-((3R)3,4-dihydroxy-3-methyl-but-1-ynyl)-1-ethyl-3-(1H-imidazol-2-yl)-1,8-naphthyridin-4(1H)-one], the IC50 is 47 nM. For `CCn1c(N)c(-c2ncc[nH]2)c(=O)c2ccc(C#C[C@](C)(O)CO)nc21` [Compound 28, 2-Amino-7-((3S)3,4-dihydroxy-3-methyl-but-1-ynyl)-1-ethyl-3-(1H-imidazol-2-yl)-1,8-naphthyridin-4(1H)-one], the concentration for half-maximal inhibition (IC50) worked out at 153 nM. Take `CCn1c(N)c(-c2ncc[nH]2)c(=O)c2ccc(C#C[C@](C)(O)COC)nc21` [Compound 29, 2-Amino-1-ethyl-7-((3S)-3-hydroxy-4-methoxy-3-methyl-but-1-ynyl)-3-(1H-imidazol-2-yl)-1,8-naphthyridin-4(1H)-one]: the 50% inhibitory concentration (IC50) was 145 nM.
